Test results reported in PMC6751662, “Pharmacological and functional similarities of the human neuropeptide Y system in C. elegans challenges phylogenetic views on the FLP/NPR system” (Cell Communication and Signaling : CCS, 2019).

What was measured:
Type in all cases: cell-based, C. elegans
NPR-4b = target: T1, NPR-4b (Caenorhabditis elegans, UniProt A0A078BTK0); experiment: cAMP reporter gene assay, Gs (no forskolin), NPR-4b; conditions: no forskolin, 4 h, transiently transfected HEK293, CRE-luciferase reporter, mean of >=3 independent experiments
T1 sequence (A0A078BTK0 1-376): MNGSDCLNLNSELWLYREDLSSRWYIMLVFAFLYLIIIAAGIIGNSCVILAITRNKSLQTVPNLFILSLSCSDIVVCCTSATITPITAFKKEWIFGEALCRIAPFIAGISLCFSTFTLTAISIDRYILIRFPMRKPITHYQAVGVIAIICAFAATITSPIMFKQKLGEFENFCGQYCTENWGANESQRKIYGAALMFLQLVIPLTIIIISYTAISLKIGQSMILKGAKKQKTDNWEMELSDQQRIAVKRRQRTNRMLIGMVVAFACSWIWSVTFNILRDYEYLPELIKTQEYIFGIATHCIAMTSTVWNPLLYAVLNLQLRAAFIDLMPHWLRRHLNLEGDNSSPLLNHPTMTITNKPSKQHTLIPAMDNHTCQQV
Method: Activation of Gs and Gi/o was assessed with a cAMP reporter gene assay. HEK293 cells grown to 70–80% confluency in 6-well plates were transiently co-transfected with vectors encoding the receptor and the cAMP reporter gene plasmid pGL4.29 [luc2P/CRE/Hygro] (Promega; 4 μg total, 1:1 ratio) using Metafectene Pro (3 μl/μg DNA; Biontex) following the manufacturer’s instructions. 16 h post transfection, the cells were seeded into white 384-well plates at a density of 20,000 cells/well. On the next day, the medium was removed and the cells were stimulated with 20 μl of peptide solution (or forskolin as positive control) in serum-free DMEM for 4 h. For measuring Gi/o activity, the peptide solutions additionally contained 1 μM forskolin to elevate cellular cAMP levels. After incubation, the luciferase substrate OneGlo in lysis buffer (Promega) was added and the luminescence was measured in a microplate reader Tecan Spark (Tecan). Data were analyzed with GraphPad Prism 5.03 and are shown as fold of basal or fold of forskolin in case of Gαi/o activity.
For in vitro activation, data is presented as mean ± SEM of at least three independent experiments conducted in technical triplicate. […] For the C. elegans NPRs, we considered the strongest response elicited by any of the peptides downstream of a particular receptor as the receptor’s maximal signal. This may or may not be the biological maximum that can be reached by the ‘true’ endogenous agonist. For the human receptors, the response to the established endogenous agonist reflected the maximal signal.

NPR-6 = experiment: IP accumulation assay, endogenous Gαq + mock, NPR-6; conditions: 1 h, HBSS + 20 mM LiCl, HEK293 receptor + empty vector, HTRF IP-One, mean of >=3 independent experiments
Method: (§1) For measuring IP accumulation, HEK293 cells grown to 70–80% confluency in 6-well plates were transiently co-transfected using Metafectene Pro (2.5 μl/μg DNA; Biontex) with plasmids containing receptor and/or mock (empty pcDNA3.1) (for endogenous Gq-coupling) using 4 μg total DNA in a ratio of 3:1 following the manufacturer’s instructions. For testing Gα16- and GαΔ6qi4myr-coupling, plasmids encoding the corresponding Gα protein were co-transfected instead of mock. Gα16 is naturally promiscuous and stimulates the phospholipase C (PLC) pathway leading to IP production, while the exchange of the C-terminal four amino acids of Gαq for the corresponding residues of Gαi1 in the chimeric GαΔ6qi4myr confers the ability to couple to Gi/o protein-preferring receptors but still stimulate PLC, thus specifically redirecting downstream cellular signaling. 16 h post transfection, the cells were seeded into white 384-well plates at a density of 20,000 cells/well. Media was removed 24 h later and the cells were incubated with the indicated concentration of peptides for 1 h in HBSS + 20 mM LiCl. IP accumulation was measured with the HTRF-based IP-One Gq kit (Cisbio) on a microplate reader (Tecan Spark).
(§2) For in vitro activation, data is presented as mean ± SEM of at least three independent experiments conducted in technical triplicate. […]

NPR-11 = target: T2, NPR-11 (Caenorhabditis elegans, UniProt Q18179); experiment: IP accumulation assay, co-transfected Gα16, NPR-11; conditions: 1 h, HBSS + 20 mM LiCl, HEK293 receptor + Gα16, HTRF IP-One, mean of >=3 independent experiments
T2 construct: expressed in transfected cells; host or cells: HEK293, transient
T2 sequence (Q18179 1-402): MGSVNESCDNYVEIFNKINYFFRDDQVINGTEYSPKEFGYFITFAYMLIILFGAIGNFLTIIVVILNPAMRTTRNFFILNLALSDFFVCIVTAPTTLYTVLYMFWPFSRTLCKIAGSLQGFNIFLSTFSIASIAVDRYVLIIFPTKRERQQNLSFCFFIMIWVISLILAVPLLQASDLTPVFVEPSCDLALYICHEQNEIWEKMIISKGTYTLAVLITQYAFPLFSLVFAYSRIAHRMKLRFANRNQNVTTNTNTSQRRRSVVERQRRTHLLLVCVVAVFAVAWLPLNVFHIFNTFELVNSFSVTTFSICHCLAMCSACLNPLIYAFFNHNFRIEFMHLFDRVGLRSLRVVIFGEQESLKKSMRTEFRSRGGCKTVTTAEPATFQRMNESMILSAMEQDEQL
Method: as §1, §2

NPR-1 [1] = target: T3, NPR-1 (Caenorhabditis elegans, UniProt Q18534); experiment: IP accumulation assay, endogenous Gαq + mock, NPR-1; parameters: host or cells: HEK293; conditions: 1 h, HBSS + 20 mM LiCl, HEK293 receptor + empty vector, HTRF IP-One, mean of >=3 independent experiments
T3 sequence (Q18534 1-457): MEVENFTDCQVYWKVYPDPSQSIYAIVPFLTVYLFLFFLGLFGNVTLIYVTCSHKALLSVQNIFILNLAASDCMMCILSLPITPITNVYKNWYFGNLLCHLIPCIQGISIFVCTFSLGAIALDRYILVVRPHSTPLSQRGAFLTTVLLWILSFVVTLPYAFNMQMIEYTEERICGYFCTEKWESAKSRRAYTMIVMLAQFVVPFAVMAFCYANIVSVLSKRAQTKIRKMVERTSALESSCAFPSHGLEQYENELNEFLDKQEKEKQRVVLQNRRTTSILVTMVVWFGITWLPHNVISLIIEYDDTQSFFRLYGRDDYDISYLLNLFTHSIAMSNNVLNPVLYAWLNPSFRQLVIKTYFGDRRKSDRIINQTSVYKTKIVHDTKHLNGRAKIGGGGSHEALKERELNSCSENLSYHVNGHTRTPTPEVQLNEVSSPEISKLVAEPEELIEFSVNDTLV
Method: as §1, §2

NPR-1 [2] = target: T3, NPR-1; experiment: IP accumulation assay, co-transfected Gα16, NPR-1; parameters: expressed in transfected cells; host or cells: HEK293; conditions: 1 h, HBSS + 20 mM LiCl, HEK293 receptor + Gα16, HTRF IP-One, mean of >=3 independent experiments
Method: as §1, §2

[3] = 0.1 nM peptide (so in the source)

- cAMP assay Gs, NPR-4b (NPR-4b; 0.1 µM peptide): 0.89 x-fold of basal
- cAMP assay Gs, NPR-4b (NPR-4b; 10 µM peptide): 0.92 x-fold of basal
- IP assay endog. Gαq + Gα16, NPR-11 (NPR-11; [3]): 1.04 x-fold of basal
- IP assay endog. Gαq + Gα16, NPR-11 (NPR-11; 10 µM peptide): 0.84 x-fold of basal
- IP assay endog. Gαq + mock, NPR-1 (NPR-1 [1]; [3]): 0.89 x-fold of basal
- IP assay endog. Gαq + mock, NPR-1 (NPR-1 [1]; 10 µM peptide): 0.94 x-fold of basal
- IP assay endog. Gαq + Gα16, NPR-1 (NPR-1 [2]; [3]): 0.90 x-fold of basal
- IP assay endog. Gαq + Gα16, NPR-1 (NPR-1 [2]; 10 µM peptide): 0.81 x-fold of basal
Substance: APKPKFIRF-NH2 [FLP-5-1, C. elegans FMRFamide-like peptide, C-terminally amidated, synthesized by SPPS]
- IP assay endog. Gαq + mock, NPR-6 (NPR-6; [3]): 0.92 x-fold of basal
- IP assay endog. Gαq + mock, NPR-6 (NPR-6; 10 µM peptide): 0.95 x-fold of basal
